Measurements taken from ChEMBL document CHEMBL1201862, “PubChem BioAssay data set” (2004).
Active and inactive are the calls of the source.

Key:
[1] = molecular target: Melanin-concentrating hormone receptor 1 (Homo sapiens, UniProt Q99705); test: Fluorescence-based counterscreen for antagonists of the G-protein coupled receptor 7 (GPR7): cell-based high throughput dose response assay to identify antagonists of the melanin-concentrating hormone receptor 1 (MCHR1).; type: functional
[2] = molecular target: DNA dC->dU-editing enzyme APOBEC-3G (Homo sapiens, UniProt Q9HC16); type: functional;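 note: Dose-response counterscreen measuring inhibition of APOBEC3G DNA deaminase activity, run while confirming APOBEC3A inhibitors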
[3] = molecular target: DNA dC->dU-editing enzyme APOBEC-3A (Homo sapiens, UniProt P31941); test: Dose Response confirmation of small molecule APOBEC3A DNA Deaminase Inhibitors via a fluorescence-based single-stranded DNA deaminase assay. [Related pubchem assays (depositor defined):AID493011, AID493024]; type: functional
[4] = molecular target: Neuropeptides B/W receptor type 1 (Homo sapiens, UniProt P48145); test: Fluorescence-based dose response cell-based high throughput screening assay to identify antagonists of the G-protein coupled receptor 7 (GPR7). [Related pubchem assays: 1952 (Screening assay (GPR7 antagonists).), 1880 (Summary AID.)]; type: functional
[5] = molecular target: Lysosomal acid glucosylceramidase (Homo sapiens, UniProt P04062); test: Dose response cell-based high throughput screening assay to identify enhancers of beta-glucosidase activity. [Related pubchem assays: 784 ]; type: functional
[6] = system: Streptococcus; test: Group A Streptococcus viability loss, dose response, counter-screen for streptokinase expression inhibitor project, luminescence, BacTiterGlo (AID 1915); type: functional, organism-based;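 note: potency for reduction of bacterial viability or growth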
[7] = system: Streptococcus sp. 'group A'; test: growth inhibition of control SK(-) GAS strain, dose response, counter-screen for streptokinase expression inhibitor project, luminescence, kanamycin, BacTiterGlo, confirmation (AID 1900); type: functional, organism-based
[8] = system: HEK293; test: Fluorescence-based counterscreen for potentiators or agonists of NPY-Y1: cell-based high-throughput dose response assay for inhibitors of cyclic nucleotide gated ion channel (CNGC) activity. In this assay, the parental HEK293 cell line transfected with a cyclic-nucleotide gated ion channel (CNGC)-based cAMP sensor is used to measure inhibition of isoproterenol-induced CNGC …; type: functional; conditions: Homo sapiens
[9] = molecular target: Serine/threonine-protein phosphatase (Homo sapiens, UniProt Q9BPW0); test: Counterscreen for inhibitors of PP1: fluorescence-based biochemical high throughput dose response assay to identify inhibitors of Protein Phosphatase 5 (PP5). [Related pubchem assays: 2034 (Summary (PP5 inhibitors)), 1987 (PP5 inhibitors in singlate), 2235 (PP1 inhibitors in singlate)]
[10] = molecular target: Serine/threonine-protein phosphatase PP1-alpha catalytic subunit (Homo sapiens, UniProt P62136); test: PP1 phosphatase inhibitors, dose response, biochemical, fluorescence (AID 2403);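 note: phosphatase turnover of OMFP into fluorescent 3-O-methylfluorescein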
[11] = molecular target: Protein Rev (Human immunodeficiency virus type 1 group M subtype B (isolate WMJ22)(HIV-1), UniProt P05866); test: HIV-1 Rev-RRE RNA binding disruptors, dose response, biochemical, protein-RNA interaction (AID 842); set-up: species or system Human immunodeficiency virus 1
[12] = system: HT-1080; test: cytotoxicity in HT1080 fibrosarcoma cells, cell-based, fluorescence readout (AID 620); type: functional; conditions: Homo sapiens
[13] = inhibitors of firefly luciferase expression or activity, dose response, H4 neuroglioma cells, luminescence (AID 1990); type: functional, cell-based
[14] = molecular target: T1, Microphthalmia-associated transcription factor (Homo sapiens, UniProt O75030); test: TRPM1 promoter luciferase signal decrease, dose response, MITF inhibitor project, cell-based, SK-MEL-5, cherry-picked, set 3 (AID 493073); type: functional
T1 sequence (O75030 whole entry): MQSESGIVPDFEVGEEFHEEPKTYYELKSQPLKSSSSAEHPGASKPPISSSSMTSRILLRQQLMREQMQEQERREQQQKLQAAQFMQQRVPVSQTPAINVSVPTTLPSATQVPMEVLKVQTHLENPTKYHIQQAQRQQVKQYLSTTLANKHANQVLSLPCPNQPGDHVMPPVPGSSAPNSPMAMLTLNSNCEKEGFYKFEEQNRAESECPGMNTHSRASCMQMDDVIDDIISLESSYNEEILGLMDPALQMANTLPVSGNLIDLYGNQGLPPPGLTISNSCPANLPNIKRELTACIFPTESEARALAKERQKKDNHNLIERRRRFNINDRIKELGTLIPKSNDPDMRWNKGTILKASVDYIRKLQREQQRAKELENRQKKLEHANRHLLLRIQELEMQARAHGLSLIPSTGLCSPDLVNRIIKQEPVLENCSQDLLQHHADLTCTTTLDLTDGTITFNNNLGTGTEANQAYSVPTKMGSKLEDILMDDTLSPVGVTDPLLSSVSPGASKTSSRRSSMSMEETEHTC

[15] = Luminescence Cell-Based Dose Confirmation HTS to Identify Inhibitors of Platelet Dense Granule Release. [Related pubchem assays: 1663 (Primary HTS), 1678 (Summary of Project)]; type: functional
[16] = molecular target: T2, Heat shock factor protein 1 (Mus musculus, UniProt P38532); test: inhibition of MG132-induced HSE-luciferase signal, confirmation, cell-based, NIH3T3, luminescence, dose retest (AID 2382); type: functional;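 note: NIH3T3 fibroblasts with HSF1-driven luciferase reporter stressed by proteasome inhibitor MG132; luminescence from HSF1-driven luciferase expression after 8 hours of MG132 stress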
T2 sequence (P38532 whole entry): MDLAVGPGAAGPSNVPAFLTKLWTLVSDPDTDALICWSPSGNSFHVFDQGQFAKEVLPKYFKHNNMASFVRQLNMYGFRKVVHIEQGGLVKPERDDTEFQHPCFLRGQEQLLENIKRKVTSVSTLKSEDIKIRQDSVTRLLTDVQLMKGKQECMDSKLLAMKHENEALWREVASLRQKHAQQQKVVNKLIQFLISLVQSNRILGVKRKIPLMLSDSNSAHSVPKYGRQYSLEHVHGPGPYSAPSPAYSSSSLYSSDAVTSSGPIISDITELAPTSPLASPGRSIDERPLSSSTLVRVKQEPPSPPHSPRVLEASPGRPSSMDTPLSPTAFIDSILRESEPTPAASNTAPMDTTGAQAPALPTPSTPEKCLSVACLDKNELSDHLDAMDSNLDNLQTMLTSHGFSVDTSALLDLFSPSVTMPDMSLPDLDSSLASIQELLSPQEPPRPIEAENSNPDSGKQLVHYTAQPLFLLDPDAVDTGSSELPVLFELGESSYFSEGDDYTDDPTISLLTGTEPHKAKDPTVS

[17] = system: A-375; test: A375 melanoma cell viability reduction, dose response, counter-screen for MITF modulator project, cherry-pick samples, set 2 (AID 540335); type: functional, cell-based; conditions: Homo sapiens
[18] = cells; type: functional, cell-based
[19] = molecular target: T3, Luciferin 4-monooxygenase (Photinus pyralis, UniProt P08659); test: firefly luciferase enzyme inhibitors, dose response, biochemical, luminescence (AID 1891)
[20] = inhibitors of SNCA 5'UTR-driven translation, confirmation, luminescence, H4 neuroglioblastoma cells, dose confirmation (AID 2454); type: functional, cell-based;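 note: H4 neuroglioblastoma cells carrying an alpha-synuclein 5'UTR luciferase reporter; potency for inhibition of the luciferase signal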
[21] = inhibitors of SNCA 5'UTR-driven reporter translation, confirmation, H4 neuroglioma cells, luminescence (AID 1988); type: functional, cell-based
[22] = molecular target: T3, Luciferin 4-monooxygenase; test: Counter Screen for Luciferase-based Assay Positives. [Related pubchem assays: 620, 618, 411 ]
[23] = Luminescence Cell-Based Dose Response HTS to Identify Inhibitors of 5'UTR Stem-Loop Driven Prion Protein mRNA Translation in H4 Neuroglioblastoma Cells. [Related pubchem assays: 1827 (Project Summary), 1813 (Primary HTS)]; type: functional
[24] = growth suppression of PTEN-null colon cells, dose response, cell-based, HCT116 PTEN knockout (AID 1047); type: functional;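 note: HCT116 colon tumor cells with PTEN knocked out; cells exposed to compound for 60 hours before readout; potency for loss of cell viability measured by luminescence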
[25] = molecular target: T4, Alkaline phosphatase, tissue-nonspecific isozyme (Homo sapiens, UniProt P05186)
T4 sequence (P05186 whole entry): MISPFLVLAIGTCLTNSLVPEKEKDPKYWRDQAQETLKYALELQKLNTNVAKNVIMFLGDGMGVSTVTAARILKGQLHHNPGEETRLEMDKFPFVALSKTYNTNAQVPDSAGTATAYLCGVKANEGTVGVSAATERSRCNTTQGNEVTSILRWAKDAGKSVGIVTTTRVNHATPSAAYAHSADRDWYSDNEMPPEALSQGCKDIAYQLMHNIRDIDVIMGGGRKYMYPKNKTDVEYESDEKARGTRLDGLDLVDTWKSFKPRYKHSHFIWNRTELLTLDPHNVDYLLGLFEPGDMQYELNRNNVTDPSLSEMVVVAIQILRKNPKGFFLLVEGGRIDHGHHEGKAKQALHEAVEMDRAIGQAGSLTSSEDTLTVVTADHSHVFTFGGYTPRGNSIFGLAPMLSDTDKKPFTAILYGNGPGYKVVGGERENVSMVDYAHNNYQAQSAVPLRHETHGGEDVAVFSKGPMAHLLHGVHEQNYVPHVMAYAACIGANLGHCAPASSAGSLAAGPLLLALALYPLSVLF

[26] = growth suppression of beta-catenin-knockout colon cells, dose response, cell-based, HCT116, human colon tumor (AID 1045); type: functional;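 note: HCT116 colon tumor cells with beta catenin knocked out; cells exposed to compound for 60 hours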
[27] = system: HEK293; test: PMA/Ionomycin-induced IL-8 production in HEK293- NF-kB-Luc stable cells. [Related pubchem assays: 1299, 1295, 1375, 1287, 1281, 1293, 1291, 1289, 1280, 465, 1364, 1282, 1372, 1365, 1367, 1366, 1266, 1269, 1373, 1292, 1290, 1302, 1371, 1283, 1271, 1294, 1374, 1368, 1369 ]; type: functional, cell-based; conditions: Homo sapiens
[28] = system: HEK293; test: TNF Induced NF-kB Luciferase in 293-NF-kB-Luc Stable Cells. [Related pubchem assays: 1266, 1299, 1269, 1373, 1292, 1290, 1302, 1371, 1283, 1270, 1295, 1271, 1375, 1294, 1374, 1281, 1293, 1291, 1289, 1280, 465, 1368, 1364, 1282, 1372, 1365, 1369, 1370, 1367, 1366 ]; type: functional, cell-based; conditions: Homo sapiens
[29] = system: HEK293; test: PMA/Ionomycin induced NF-kB luciferase assay in 293- NF-kB-Luc stable cells. [Related pubchem assays: 1299, 1270, 1295, 1375, 1287, 1281, 1293, 1291, 1289, 1280, 465, 1364, 1282, 1372, 1365, 1370, 1367, 1366, 1269, 1373, 1292, 1290, 1302, 1371, 1283, 1271, 1294, 1374, 1368, 1369 ]; type: functional, cell-based; conditions: Homo sapiens
[30] = system: HEK293; test: Cytotoxicity assay in HEK293 cells. [Related pubchem assays (depositor defined):AID1266, AID1269, AID1270, AID1271, AID1280, AID1281, AID1282, AID1283, AID1287, AID1289, AID1290, AID1291, AID1292, AID1293, AID1294, AID1295, AID1299, AID1302, AID1364, AID1365, AID1366, AID1367, AID1369, AID1370, AID1371, AID1372, AID1373, AID1374, AID1375, AID1384 …; type: functional, cell-based; conditions: Homo sapiens
[31] = molecular target: T3, Luciferin 4-monooxygenase; test: In vitro luciferase assay using purified luciferase. [Related pubchem assays: 1299, 1270, 1295, 1375, 1287, 1281, 1293, 1291, 1289, 1280, 465, 1364, 1282, 1372, 1365, 1370, 1367, 1366, 1266, 1373, 1292, 1290, 1302, 1371, 1283, 1271, 1294, 1374, 1368, 1369 ]

T3 sequence (P08659 whole entry): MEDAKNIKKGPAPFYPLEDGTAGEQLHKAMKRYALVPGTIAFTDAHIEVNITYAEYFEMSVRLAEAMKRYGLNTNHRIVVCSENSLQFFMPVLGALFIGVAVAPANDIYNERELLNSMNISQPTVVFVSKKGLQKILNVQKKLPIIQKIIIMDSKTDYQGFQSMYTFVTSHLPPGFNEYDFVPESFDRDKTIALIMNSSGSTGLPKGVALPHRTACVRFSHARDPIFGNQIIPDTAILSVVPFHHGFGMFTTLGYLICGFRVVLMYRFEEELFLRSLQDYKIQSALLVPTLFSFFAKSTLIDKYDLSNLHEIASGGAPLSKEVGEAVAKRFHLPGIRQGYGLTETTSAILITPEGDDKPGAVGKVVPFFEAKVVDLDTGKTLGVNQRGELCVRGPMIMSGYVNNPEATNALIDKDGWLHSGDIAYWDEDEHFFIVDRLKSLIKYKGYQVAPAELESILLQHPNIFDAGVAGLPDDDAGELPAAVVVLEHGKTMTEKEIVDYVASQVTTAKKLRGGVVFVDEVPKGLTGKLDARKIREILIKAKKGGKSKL
Chain of Neuropeptides B/W receptor type 1 (P48145 whole entry): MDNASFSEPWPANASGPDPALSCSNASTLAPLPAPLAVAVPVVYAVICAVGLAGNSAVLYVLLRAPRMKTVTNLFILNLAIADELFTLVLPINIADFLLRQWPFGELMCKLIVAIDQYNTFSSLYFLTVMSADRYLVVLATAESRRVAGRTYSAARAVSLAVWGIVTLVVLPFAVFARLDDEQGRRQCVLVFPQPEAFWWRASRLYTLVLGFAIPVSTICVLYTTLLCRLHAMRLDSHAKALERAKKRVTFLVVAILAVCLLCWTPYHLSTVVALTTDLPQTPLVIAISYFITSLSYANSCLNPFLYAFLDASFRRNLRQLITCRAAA
Chain of Lysosomal acid glucosylceramidase (P04062 whole entry): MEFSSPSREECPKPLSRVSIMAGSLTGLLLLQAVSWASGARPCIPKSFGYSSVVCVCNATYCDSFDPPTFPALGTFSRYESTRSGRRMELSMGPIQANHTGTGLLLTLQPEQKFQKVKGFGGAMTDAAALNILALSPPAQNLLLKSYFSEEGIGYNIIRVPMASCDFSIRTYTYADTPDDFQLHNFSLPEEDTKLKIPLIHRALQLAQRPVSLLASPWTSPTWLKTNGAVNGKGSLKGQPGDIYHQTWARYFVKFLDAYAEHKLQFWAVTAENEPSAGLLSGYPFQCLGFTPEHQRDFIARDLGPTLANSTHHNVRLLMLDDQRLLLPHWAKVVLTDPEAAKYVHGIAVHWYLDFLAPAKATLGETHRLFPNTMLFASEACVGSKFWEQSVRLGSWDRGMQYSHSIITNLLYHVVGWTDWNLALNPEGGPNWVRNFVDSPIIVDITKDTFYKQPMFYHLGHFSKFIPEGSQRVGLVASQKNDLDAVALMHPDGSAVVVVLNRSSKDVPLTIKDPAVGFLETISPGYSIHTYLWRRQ
Chain of Protein Rev (P05866 whole entry): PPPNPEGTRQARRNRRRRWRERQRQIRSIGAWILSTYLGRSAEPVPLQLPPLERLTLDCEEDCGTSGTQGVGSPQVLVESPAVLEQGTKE
Chain of DNA dC->dU-editing enzyme APOBEC-3A (P31941 whole entry): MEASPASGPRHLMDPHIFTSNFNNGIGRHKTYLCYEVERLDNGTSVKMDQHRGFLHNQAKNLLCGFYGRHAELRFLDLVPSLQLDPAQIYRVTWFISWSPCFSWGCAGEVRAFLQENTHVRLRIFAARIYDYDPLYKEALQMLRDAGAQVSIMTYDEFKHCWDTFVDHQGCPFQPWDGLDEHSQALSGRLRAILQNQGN
Chain of DNA dC->dU-editing enzyme APOBEC-3G (Q9HC16 whole entry): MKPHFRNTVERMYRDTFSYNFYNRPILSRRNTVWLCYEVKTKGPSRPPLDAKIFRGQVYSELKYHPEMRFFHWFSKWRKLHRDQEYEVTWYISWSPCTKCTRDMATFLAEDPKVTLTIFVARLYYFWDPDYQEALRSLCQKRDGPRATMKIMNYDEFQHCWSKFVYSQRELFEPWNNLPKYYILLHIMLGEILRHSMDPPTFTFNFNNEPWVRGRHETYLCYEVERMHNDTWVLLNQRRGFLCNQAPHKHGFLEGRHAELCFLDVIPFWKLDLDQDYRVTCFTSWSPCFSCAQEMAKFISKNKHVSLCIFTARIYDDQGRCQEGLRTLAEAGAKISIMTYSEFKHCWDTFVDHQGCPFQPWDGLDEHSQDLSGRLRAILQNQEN
Chain of Serine/threonine-protein phosphatase (Q9BPW0 whole entry): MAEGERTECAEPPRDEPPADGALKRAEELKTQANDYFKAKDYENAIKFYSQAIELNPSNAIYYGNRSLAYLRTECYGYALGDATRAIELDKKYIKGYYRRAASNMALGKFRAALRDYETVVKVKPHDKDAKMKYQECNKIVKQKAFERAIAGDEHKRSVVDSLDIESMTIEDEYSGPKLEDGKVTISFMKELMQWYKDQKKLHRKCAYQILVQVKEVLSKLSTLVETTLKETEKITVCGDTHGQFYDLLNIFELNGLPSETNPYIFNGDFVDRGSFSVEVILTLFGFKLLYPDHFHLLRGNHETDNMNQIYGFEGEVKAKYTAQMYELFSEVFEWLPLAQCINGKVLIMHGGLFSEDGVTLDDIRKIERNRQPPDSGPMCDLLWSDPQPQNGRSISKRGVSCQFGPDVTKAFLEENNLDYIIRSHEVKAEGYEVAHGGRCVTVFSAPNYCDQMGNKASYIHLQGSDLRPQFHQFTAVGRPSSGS
Chain of Serine/threonine-protein phosphatase PP1-alpha catalytic subunit (P62136 whole entry): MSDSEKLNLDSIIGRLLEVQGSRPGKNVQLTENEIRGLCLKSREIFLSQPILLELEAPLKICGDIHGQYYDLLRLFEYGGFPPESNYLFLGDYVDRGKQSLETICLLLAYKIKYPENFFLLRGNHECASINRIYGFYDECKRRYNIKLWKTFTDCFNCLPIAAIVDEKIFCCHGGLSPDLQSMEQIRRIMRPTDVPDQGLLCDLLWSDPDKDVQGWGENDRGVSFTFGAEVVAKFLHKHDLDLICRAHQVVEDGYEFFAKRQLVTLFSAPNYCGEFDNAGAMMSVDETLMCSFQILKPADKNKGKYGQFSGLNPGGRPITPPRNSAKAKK
Chain of Melanin-concentrating hormone receptor 1 (Q99705 whole entry): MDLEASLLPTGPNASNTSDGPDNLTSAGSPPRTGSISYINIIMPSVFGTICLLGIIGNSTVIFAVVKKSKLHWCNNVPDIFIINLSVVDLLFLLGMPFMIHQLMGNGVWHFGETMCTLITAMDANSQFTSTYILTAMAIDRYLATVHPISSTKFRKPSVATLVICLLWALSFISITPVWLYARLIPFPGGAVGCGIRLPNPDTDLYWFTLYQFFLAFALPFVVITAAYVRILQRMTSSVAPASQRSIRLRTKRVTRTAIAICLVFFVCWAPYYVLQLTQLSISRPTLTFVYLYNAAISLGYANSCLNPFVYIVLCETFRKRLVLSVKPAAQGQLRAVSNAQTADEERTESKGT

FC(F)(F)c1cccc(C[n+]2c3n(c4ccc(C(F)(F)F)cc42)CCCCC3)c1
IC50 [1]: 13 µM (not active)
IC50 [2]: 3.21 µM (active)
IC50 [3]: 2.17 µM (active)
IC50 [4]: 19.7 µM (not active)

CCOC(=O)c1oc2c(C)c(O)ccc2c(=O)c1-c1nncn1-c1ccccc1
EC50 [5]: > 50 µM (not active)

CCOc1ccc(NC(S)=NN=C(S)Nc2cccc(C(F)(F)F)c2)cc1
EC50 [6]: > 150 µM (not active)
EC50 [7]: 24.4 µM (active)
IC50 [8]: > 35.4 µM (not active)

O=C(O)C1C2CCC(O2)C1C(=O)NC1CCCCC1 (stereo unspecified)
IC50 [9]: 3.03 µM (active)
IC50 [10]: 3.7 µM (active)

CCOC(=O)c1c(C)n(C)c2ccc(O)c(CN(C)C)c12
IC50 [11]: > 79.4 µM (not active)

O=C(/C=C\Nc1ccc2c(c1)OCO2)c1ccccn1
EC50 [12]: > 50 µM (not active)
EC50 [13]: 0.649 µM (active)
AC50 [14]: 2.08 µM (active)
EC50 [15]: 3.3 µM (active)
EC50 [16]: 4.62 µM (active)
AC50 [17]: 41 µM (active)
EC50 [18]: > 12 µM (inconclusive)
EC50 [19]: 0.634 µM (active)
EC50 [20]: 0.874 µM (active)
EC50 [21]: 0.234 µM (active)
EC50 [22]: 23.4 µM (active)
EC50 [23]: < 0.1 µM (active)

Cn1c(N/N=C2\CCCc3ccccc32)nc2c1c(=O)n(Cc1ccc(F)cc1)c(=O)n2C
EC50 [24]: 9.86 µM (active)
EC50 [25]: 18.8 µM (active)
EC50 [26]: 10.2 µM (active)

CN(C)c1ncnc2c1ncn2[C@@H]1OC(CO)C(O)C1O (stereo partly specified)
EC50 [27]: > 8 µM (not active)
EC50 [28]: > 8 µM (not active)
EC50 [29]: 1.85 µM (active)
EC50 [30]: 12.2 µM (inactive)
EC50 [31]: > 8 µM (not active)
